Experimental data: ChEMBL document CHEMBL1201862, “PubChem BioAssay data set” (2004)
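Tested at 5 concentrations; 48 h exposure; 96-well plates; endpoints linearly interpolated, else capped at highest concentration. GI50 marks 50% less growth.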 Calls of active or inactive are those of the source. No stated cut-off is given here; in the data, active = GI50 up to about 1.1 µM and inactive = higher.

Experiments:
Experiment in all cases: NCI anticancer screen, dose series, 48 h
786-0 = test system: 786-0
A498 = test system: A498
A549 = test system: A549
ACHN = test system: ACHN
BT-549 = test system: BT-549
CAKI-1 = test system: CAKI-1
CCRF-CEM = test system: CCRF-CEM
COLO 205 = test system: COLO 205
DU-145 = test system: DU-145
EKVX = test system: EKVX
HCC 2998 = test system: HCC 2998
HCT-116 = test system: HCT-116
HCT-15 = test system: HCT-15
HOP-62 = test system: HOP-62
HOP-92 = test system: HOP-92
HT-29 = test system: HT-29
IGROV-1 = test system: IGROV-1
K562 = test system: K562
KM12 = test system: KM12
LOX IMVI = test system: LOX IMVI
M14 = test system: M14
MCF7 = test system: MCF7
MDA-MB-231 = test system: MDA-MB-231
MDA-MB-435 = test system: MDA-MB-435
MDA-N = test system: MDA-N
MOLT-4 = test system: MOLT-4
Malme-3M = test system: Malme-3M
NCI-H226 = test system: NCI-H226
NCI-H23 = test system: NCI-H23
NCI-H460 = test system: NCI-H460
NCI-H522 = test system: NCI-H522
NCI/ADR-RES = test system: NCI/ADR-RES
OVCAR-3 = test system: OVCAR-3
OVCAR-4 = test system: OVCAR-4
OVCAR-5 = test system: OVCAR-5
OVCAR-8 = test system: OVCAR-8
PC-3 = test system: PC-3
RPMI-8226 = test system: RPMI-8226
RXF 393 = test system: RXF 393
SF-268 = test system: SF-268
SF-295 = test system: SF-295
SF-539 = test system: SF-539
SK-MEL-28 = test system: SK-MEL-28
SK-MEL-2 = test system: SK-MEL-2
SK-MEL-5 = test system: SK-MEL-5
SK-OV-3 = test system: SK-OV-3
SN12C = test system: SN12C
SNB-19 = test system: SNB-19
SNB-75 = test system: SNB-75
SW-620 = test system: SW-620
T47D = test system: T47D
TK-10 = test system: TK-10
U-251 = test system: U-251
UACC-257 = test system: UACC-257
UACC-62 = test system: UACC-62
UO-31 = test system: UO-31
HL-60 = test system: HL-60
Hs-578T = test system: Hs-578T
SR = test system: SR

Measured: GI50

C/C(=C\c1ccccc1)C(=O)NCc1ccc(C(=O)NCCC(C)C)cc1
> 100 µM: HCT-15
inactive: 786-0 38.3 µM | A498 27 µM | A549 > 100 µM | ACHN 55.6 µM | BT-549 33.8 µM | CAKI-1 93.8 µM | CCRF-CEM > 100 µM | COLO 205 > 100 µM | DU-145 > 100 µM | EKVX 76.4 µM | HCC 2998 > 100 µM | HCT-116 65 µM | HOP-62 18.2 µM | HOP-92 49.5 µM | HT-29 41.8 µM | IGROV-1 68.7 µM | K562 > 100 µM | KM12 > 100 µM | LOX IMVI > 100 µM | M14 > 100 µM | MCF7 > 100 µM | MDA-MB-231 85.3 µM | MDA-MB-435 > 100 µM | MDA-N > 100 µM | MOLT-4 > 100 µM | Malme-3M > 100 µM | NCI-H226 40.5 µM | NCI-H23 88.3 µM | NCI-H460 > 100 µM | NCI-H522 > 100 µM | NCI/ADR-RES 45.5 µM | OVCAR-3 > 100 µM | OVCAR-4 > 100 µM | OVCAR-5 > 100 µM | OVCAR-8 37.2 µM | PC-3 > 100 µM | RPMI-8226 > 100 µM | RXF 393 20.8 µM | SF-268 42.6 µM | SF-295 37 µM | SF-539 32.9 µM | SK-MEL-28 > 100 µM | SK-MEL-2 > 100 µM | SK-MEL-5 > 100 µM | SK-OV-3 25.2 µM | SN12C 52.7 µM | SNB-19 36.1 µM | SNB-75 21.9 µM | SW-620 > 100 µM | T47D > 100 µM | TK-10 > 100 µM | U-251 86.7 µM | UACC-257 > 100 µM | UACC-62 15.6 µM | UO-31 37.8 µM

COC(=O)c1c(O)c(C#N)c2[nH]c3ccccc3n2c1=O
> 100 µM: HCT-15
inactive: 786-0 > 100 µM | A498 > 100 µM | A549 > 100 µM | ACHN > 100 µM | BT-549 > 100 µM | CAKI-1 > 100 µM | CCRF-CEM > 100 µM | COLO 205 > 100 µM | DU-145 > 100 µM | EKVX > 100 µM | HCC 2998 > 100 µM | HCT-116 > 100 µM | HL-60 > 100 µM | HOP-62 > 100 µM | HOP-92 > 100 µM | HT-29 > 100 µM | Hs-578T > 100 µM | IGROV-1 > 100 µM | K562 > 100 µM | KM12 > 100 µM | M14 > 100 µM | MCF7 > 100 µM | MDA-MB-231 > 100 µM | MDA-MB-435 > 100 µM | MDA-N > 100 µM | MOLT-4 > 100 µM | Malme-3M > 100 µM | NCI-H226 > 100 µM | NCI-H23 > 100 µM | NCI-H460 > 100 µM | NCI-H522 > 100 µM | NCI/ADR-RES > 100 µM | OVCAR-3 > 100 µM | OVCAR-4 > 100 µM | OVCAR-5 > 100 µM | OVCAR-8 > 100 µM | PC-3 > 100 µM | RPMI-8226 > 100 µM | RXF 393 > 100 µM | SF-268 > 100 µM | SF-295 > 100 µM | SF-539 > 100 µM | SK-MEL-2 > 100 µM | SK-MEL-5 > 100 µM | SK-OV-3 > 100 µM | SN12C > 100 µM | SNB-19 > 100 µM | SNB-75 > 100 µM | SR > 100 µM | SW-620 > 100 µM | TK-10 > 100 µM | U-251 > 100 µM | UACC-257 > 100 µM | UACC-62 > 100 µM | UO-31 > 100 µM

COc1ccc(N2C(=O)C3ON(C(C(N)=O)c4ccccc4)C(c4ccc(-c5ccccc5)cc4)C3C2=O)cc1 (configuration not stated)
inactive: 786-0 > 50 µM | A498 > 50 µM | A549 > 50 µM | ACHN > 50 µM | BT-549 > 50 µM | CAKI-1 > 50 µM | CCRF-CEM 10.2 µM | COLO 205 25.2 µM | DU-145 > 50 µM | EKVX > 50 µM | HCT-116 > 50 µM | HL-60 > 50 µM | HOP-62 > 50 µM | HT-29 24.8 µM | Hs-578T > 50 µM | IGROV-1 48.8 µM | K562 > 50 µM | KM12 > 50 µM | LOX IMVI 36.5 µM | M14 48.4 µM | MCF7 31.3 µM | MDA-MB-231 > 50 µM | MDA-MB-435 > 50 µM | MOLT-4 > 50 µM | Malme-3M 31.8 µM | NCI-H226 > 50 µM | NCI-H23 > 50 µM | NCI-H460 > 50 µM | NCI-H522 48.3 µM | NCI/ADR-RES > 50 µM | OVCAR-3 > 50 µM | OVCAR-4 > 50 µM | OVCAR-5 > 50 µM | OVCAR-8 > 50 µM | PC-3 > 50 µM | RPMI-8226 16.8 µM | RXF 393 > 50 µM | SF-268 > 50 µM | SF-295 > 50 µM | SF-539 > 50 µM | SK-MEL-28 > 50 µM | SK-MEL-2 > 50 µM | SK-OV-3 > 50 µM | SN12C > 50 µM | SNB-19 > 50 µM | SNB-75 > 50 µM | SR > 50 µM | SW-620 > 50 µM | T47D > 50 µM | TK-10 > 50 µM | U-251 > 50 µM | UACC-257 > 50 µM | UACC-62 > 50 µM | UO-31 > 50 µM
> 50 µM: HCT-15
